The values below come from patent US9963498B2, “Peptides that inhibit syndecan-1 activation of VLA-4 and IGF-1R” (Wisconsin Alumni Research Foundation, priority 2016, dated 2018).

Entries after “also recorded” stand apart in the source; their conditions may differ. Where no end group is shown, it is not given here.

Series [1] can be described thus: SSTN stability assay in mouse serum. The format is in vitro ADME. To be noted: for stability (activity retained): mouse serum, 3 days (SSTNIGF1R: more than 3 days); for stability (activity retained) / stability in serum (in words): 37° C.; for stability in serum (in words): mouse (rodent) serum, up to 72 hr. As to the method:
FIG. 16. SSTNI/V IS STABLE IN RODENT SERUM, EQUIVALENT TO SSTNIGF1R AND SSTNVLA4. SSTNI/V, SSTNIGF1R and SSTNVLA4 were incubated at 37° C. for up to 72 hr in mouse serum. Note that rodent serum is known to contain substantial proteolytic activity against peptides. A GRGDSP integrin-inhibitory peptide was used as control, tested against endothelial cell adhesion to fibronectin. Either myeloma cell viability, or endothelial cell adhesion to IIICS fragment was used to test the activity of the SSTN peptides. SSTN peptides were used at up to 30 μM, and the GRGDSP peptide was used up to 1 mM. Activity observed in the assays was plotted against a standard curve to determine relative activity.
(§1) For stability assays, SSTNIGF1R, SSTNVLA4, SSTNI/V and GRGDSP peptide (SEQ ID NO:31; EMD Millipore) were incubated in human plasma (obtained from the UW-Madison Hospital Blood Bank) for 0, 8, 24 or 72 hr, then tested in the endothelial cell adhesion assay or cell viability assay and compared to a standard curve generated using fresh peptide.

Another series deals with HMEC-1. To be noted: 16 h, 30 μM; modified from Jung et al. 2016; cited from earlier work.
In series [2] the test system is M21 murine melanoma cells. Nature of the series: Melanoma cell invasion through filters coated with fibronectin. The format is cell-based, mouse. To be noted: 16 hr, 30 μM peptide. As to the method:
FIG. 17. […] M21 murine melanoma cells are allowed to migrate for 16 hr through filters coated with fibronectin. The relative roles of the αvβ3 integrin and the α4β1 integrin (VLA-4) are determined using blocking antibodies to αv and α4 integrin subunits, or both antibodies combined.

The next series has as its system CAG myeloma cells. The note with it: CAG myeloma cells plated on FN for 2.5 hr; 0, 0.3, 3, or 30 μM; modified from Jung et al. 2016; cited from earlier work.
In series [3] the test system is myeloma, melanoma, microvascular endothelial and T-lymphoma cells. Nature of the series: Migration through filters coated with VCAM-1. The format is cell-based. The note with it: 16 hr, 30 μM. As to the method: (§2) FIGS. 11A, 11B, 11C, and 11D. […] 11A. CAG myeloma, mouse M21 melanoma, human microvascular endothelial and Jurkat T-lymphoma cells are plated on VCAM-1 for 2 hr in the presence or absence of 30 μM SSTNVLA4 or VLA-4 blocking antibody as a test of specificity. Numbers of adherent cells are quantified and expressed as a percentage of control, untreated cells in FIG. 11B. 11C. Cells are plated on top of filters coated with VCAM-1 allowed to migrate for 16 hr in the presence or absence of 30 μM SSTNVLA4. Cells accumulating on the bottom of the filters are visualized by staining. 11D. Expression level of Sdc1 and VLA-4 are shown by Western blot staining of mouse natural killer (NK) and T-cells harvested from mouse spleens.

Series [4] relates to B78 murine melanoma cells. Nature of the series: Melanoma cell survival (trypan blue exclusion). In kind it is cell-based, mouse. The note with it: up to 72 hr, 30 μM. The method, then: FIG. 18. SSTNI/V BLOCKS SURVIVAL OF MOUSE MELANOMA CELLS. B78 murine melanoma cells grown in serum-containing DMEM are incubated for up to 72 hr in 30 μM SSTNVLA4, SSTNIGF1R or SSTNI/V, then viable cells were quantified by trypan blue exclusion.
All cells were cultured at 37° C. and 92.5% air/7.5% CO2. The derivation and culture of CAG myeloma and HMEC-1 cells are described previously (Ades et al. 1992, Rapraeger et al. 2013). B78 murine melanoma cells were kindly provided by Dr. Sondel, Department of Pediatrics, University of Wisconsin-Madison. All cells are routinely screened for mycoplasma contamination. For viability studies, 2.5×10^4 myeloma cells/well or 10^4 B78 murine melanoma cells were plated in 96-well plates in complete DMEM containing 10% calf serum in the presence or absence of SSTN peptides for 24, 48 or 72 hrs. Numbers of viable cells were then determined by addition of CellTiter-GLO reagent to the culture medium as described by the manufacturer and viable cells determined by staining with 0.4% trypan blue and counting cells that exclude (viable) or take up (dead) the stain.

Series [5] relates to CAG myeloma, mouse M21 melanoma, human microvascular endothelial and Jurkat T-lymphoma cells. Nature of the series: Cell adhesion to VCAM-1. In kind it is cell-based. The note with it: 2 hr, 30 μM. The method, then:
as §2

A further series deals with HMEC-1 cells. The note with it: 20 ng/ml VEGF, 30 μM, 24 h; modified from Jung et al. 2016; cited from earlier work.
The test system of a further series is VEGFR2. The note with it: 2 h on IIICS, 10 μM; modified from Jung et al. 2016; cited from earlier work.
In series [6] the test system is UM-SCC47, SCC25, MDA-MB-468, MDA-MB-231, MCF-7 and SKBr3 carcinoma cells. To be noted: 3, 10 or 30 μM, 3 days; Beauvais et al. 2016; cited from earlier work.
Series [7] deals with angiogenesis in the mouse cornea. The note with it: induced by FGF in the mouse cornea; Beauvais et al., 2009; cited from earlier work.
For series [8] the following is noted: Beauvais et al., 2016; cited from earlier work.
Series [9] concerns HaCaT keratinocytes and MCF10A breast epithelial cells. The note with it: 3, 10 or 30 μM, 3 days; Beauvais et al. 2016; cited from earlier work.
Series [10] concerns CAG myeloma tumor xenografts. To be noted: nude mice, Alzet pumps 0.365 mg/kg/day, 4 weeks; modified from Beauvais et al. 2016; cited from earlier work.
The conditions of series [11]: Beauvais et al., 2016; plasma species not printed at the place; cited from earlier work.
Series [12] relates to Apoptosis signal regulating kinase-1 (ASK1). To be noted: CAG or MM.1R myeloma cells, 6 hr, 10 μM; modified from Beauvais et al. 2016; cited from earlier work.
The nature of series [13]: SSTN stability assay in human plasma. The format is in vitro ADME. To be noted: more than 3 days at 37° C. As to the method: as §1
Series [14] is described as follows: SSTN stability in bovine serum. In kind it is in vitro ADME. The note with it: more than 3 days at 37° C.

In the case of “SSTNVLA4: peptide mimetic of the VLA-4 binding site of Sdc1, comprised of amino acids 210-233 (or 210-221) (DFTFETSGENTAVVAVEPDRRNQS)”, the “stability (activity retained)” value in series [1] is 100%. Further, the endothelial cell invasion result in the series with HMEC-1 was “BLOCKS”. In series [2], the “block of melanoma cell invasion” value was “partially block; also recorded: partial block”. Also, in the series on CAG myeloma cells, the “VLA-4-mediated adhesion of myeloma cells” value is “displaced from VLA-4 ligands; also recorded: BLOCKS”. Further, the “invasion of cells through VCAM-1-coated filters” value in series [3] was “BLOCKS THE INVASION”; in [3] (listed as SSTNVLA-4) it was “prevented”. Also, the melanoma cell survival result in series [4] is “only a minimal effect; also recorded: only minimally”. Also, the “binding of cells to the VLA-4 ligand VCAM-1” value in [5] is “prevented”. Also, the tube formation result in the series on HMEC-1 cells is listed as “prevents the angiogenic phenotype; also recorded: BLOCKS”. Besides, the VEGFR2 activation entry in the series with VEGFR2 is listed as “BLOCKS”.

As to “SSTNIGF1R: peptide mimetic of the Sdc1 docking site (aa93-120 in human Sdc1) that captures IGF-1R and the αvβ3 or αvβ5 integrin”, the “stability (activity retained)” value in series [1], in series [13] and in series [14] was 100% throughout. Besides, the “growth of carcinoma cells” value in series [6] was “BLOCKS THE GROWTH”. Besides, the “abnormal angiogenesis in vivo” value in series [7] was “block abnormal angiogenesis”. For the same compound, the half-life in vivo entry in [8] is on record as “ca. 27 hr”. The “growth of normal epithelial cells” value in series [9] was “not affected and NOT”. The “block of melanoma cell invasion” value in series [2] is on record as “partially block; also recorded: partial block”. In [10], the “growth of myeloma tumors” value was “INHIBITS GROWTH”. Moreover, the melanoma cell survival result in series [4] is given as “killed; also recorded: blocked”. Also, the “stability when incubated in plasma” value in series [11] is on record as “remarkable stability”. Further, the ASK-1 activation entry in [12] was “ACTIVATES”.

`N=C(N)NCCC[C@H](NC(=O)CN)C(=O)NCC(=O)N[C@@H](CC(=O)O)C(=O)N[C@@H](CO)C(=O)N1CCC[C@H]1C(=O)O` [GRGDSP]: the “time to complete inactivation” value in series [1] (control peptide, tested by endothelial cell adhesion to fibronectin) was at most 8 h. The “stability in serum (in words)” value in series [1] is recorded as “destroyed within a matter of a few hr”.

Consider “LPAGEGPKEGEAVVLPEVEPGLTAREQDFTFETSGENTA [SSTNI/V]”, for which, in series [1], the “stability in serum (in words)” value is “highly stable; also recorded: same remarkable stability” and the “stability (activity retained)” value is 100%.
